Reference: patent publication US11987588B2, “Modulators of the beta-3 adrenergic receptor useful for the treatment or prevention of heart failure and disorders related thereto” (Arena Pharmaceuticals, Inc., priority 2017, dated 2024)
Entries after “also recorded” stand apart in the source; their conditions may differ.

molecular target: Beta-3 Adrenergic Receptor (Homo sapiens (Human), UniProt P13945); experiment: Homogeneous Time-Resolved Fluorescence (HTRF) cAMP antagonist assay, IC50 determination; assay type: cell-based; details: CHO-K1 cells stably expressing recombinant receptor, isoproterenol at EC90
Sequence (P13945 whole entry, species assumed): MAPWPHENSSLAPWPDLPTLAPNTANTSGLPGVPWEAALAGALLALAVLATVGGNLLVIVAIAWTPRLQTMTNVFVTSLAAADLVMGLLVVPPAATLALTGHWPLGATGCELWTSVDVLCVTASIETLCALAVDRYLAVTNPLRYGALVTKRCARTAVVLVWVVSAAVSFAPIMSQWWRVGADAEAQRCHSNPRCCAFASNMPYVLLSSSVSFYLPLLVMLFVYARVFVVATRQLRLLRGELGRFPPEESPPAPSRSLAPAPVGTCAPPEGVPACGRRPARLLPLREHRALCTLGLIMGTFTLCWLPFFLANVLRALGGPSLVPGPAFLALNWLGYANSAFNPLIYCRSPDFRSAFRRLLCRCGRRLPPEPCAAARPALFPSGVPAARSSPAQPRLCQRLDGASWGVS
In short: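 CHO-K1 cells stably expressing receptor, 1500 cells/well, preincubated briefly with 10-point 5-fold compound series (top final typically 10 or 100 μM) in PBS with 1 mM IBMX, then challenged with isoproterenol at EC90 for 1 h at room temperature. cAMP read by HTRF against on-plate standard curve; IC50 from dose-response.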

| SMILES | IC50 |
| --- | --- |
| CNS(=O)(=O)c1cccc(OC[C@@H](O)CN[C@H]2COC3(CCN(S(=O)(=O)c4cnc5cc[nH]c5c4)CC3)C2)c1 [Compound 505, 3-((S)-3-((R)-8-(1H-pyrrolo[3,2-b]pyridin-6-ylsulfonyl)-1-oxa-8-azaspiro[4.5]decan-3-ylamino)-2-hydroxypropoxy)-N-methylbenzenesulfonamide] | 8.46 nM |
| CNS(=O)(=O)c1cccc(OC[C@@H](O)CN[C@H]2COC3(CCN(c4ncc(-c5ccccc5)cn4)CC3)C2)c1 [Compound 580, 3-((S)-2-hydroxy-3-((R)-8-(5-phenylpyrimidin-2-yl)-1-oxa-8-azaspiro[4.5]decan-3-ylamino)propoxy)-N-methylbenzenesulfonamide] | 262 nM |
| CNS(=O)(=O)c1cccc(OC[C@@H](O)CN[C@H]2COC3(CCN(c4ncc(C(=O)OC)cn4)CC3)C2)c1 [Compound 581, methyl 2-((R)-3-((S)-2-hydroxy-3-(3-(N-methylsulfamoyl)phenoxy)propylamino)-1-oxa-8-azaspiro[4.5]decan-8-yl)pyrimidine-5-carboxylate] | 788 nM |
| CNS(=O)(=O)c1cccc(OC[C@@H](O)CN[C@H]2COC3(CCN(c4nccc(C(=O)O)n4)CC3)C2)c1 [Compound 582, 2-((R)-3-((S)-2-hydroxy-3-(3-(N-methylsulfamoyl)phenoxy)propylamino)-1-oxa-8-azaspiro[4.5]decan-8-yl)pyrimidine-4-carboxylic acid] | 100000 nM |
| CNS(=O)(=O)c1cccc(OC[C@@H](O)CN[C@H]2COC3(CCN(c4ncc(C(F)(F)F)cn4)CC3)C2)c1 [Compound 583, 3-((S)-2-hydroxy-3-((R)-8-(5-(trifluoromethyl)pyrimidin-2-yl)-1-oxa-8-azaspiro[4.5]decan-3-ylamino)propoxy)-N-methylbenzenesulfonamide] | 1840 nM |
| CNS(=O)(=O)c1cccc(OC[C@@H](O)CN[C@H]2COC3(CCN(c4nc(OC)cc(OC)n4)CC3)C2)c1 [Compound 584, 3-((S)-3-((R)-8-(4,6-dimethoxypyrimidin-2-yl)-1-oxa-8-azaspiro[4.5]decan-3-ylamino)-2-hydroxypropoxy)-N-methylbenzenesulfonamide] | 266 nM |
| CNS(=O)(=O)c1cccc(OC[C@@H](O)CN[C@H]2COC3(CCN(c4cnc(C(F)(F)F)cn4)CC3)C2)c1 [Compound 585, 3-((S)-2-hydroxy-3-((R)-8-(5-(trifluoromethyl)pyrazin-2-yl)-1-oxa-8-azaspiro[4.5]decan-3-ylamino)propoxy)-N-methylbenzenesulfonamide] | 202 nM |
| CNS(=O)(=O)c1cccc(OC[C@@H](O)CN[C@H]2COC3(CCN(c4cnccn4)CC3)C2)c1 [Compound 586, 3-((S)-2-hydroxy-3-((R)-8-(pyrazin-2-yl)-1-oxa-8-azaspiro[4.5]decan-3-ylamino)propoxy)-N-methylbenzenesulfonamide] | 762 nM |
| CCn1ccc(=O)c(S(=O)(=O)N2CCC3(CC2)C[C@@H](NC[C@H](O)COc2cccc(S(N)(=O)=O)c2)CO3)c1 [Compound 587, 3-((S)-3-((R)-8-(1-ethyl-4-oxo-1,4-dihydropyridin-3-ylsulfonyl)-1-oxa-8-azaspiro[4.5]decan-3-ylamino)-2-hydroxypropoxy)benzenesulfonamide] | 2390 nM |
| CCn1ccc(=O)c(S(=O)(=O)N2CCC3(CC2)C[C@@H](NC[C@H](O)COc2cccc(S(=O)(=O)NC)c2)CO3)c1 [Compound 588, 3-((S)-3-((R)-8-(1-ethyl-4-oxo-1,4-dihydropyridin-3-ylsulfonyl)-1-oxa-8-azaspiro[4.5]decan-3-ylamino)-2-hydroxypropoxy)-N-methylbenzenesulfonamide] | 1960 nM |
| CNS(=O)(=O)c1cccc(OC[C@@H](O)CN[C@H]2COC3(CCN(c4ccncn4)CC3)C2)c1 [Compound 589, 3-((S)-2-hydroxy-3-((R)-8-(pyrimidin-4-yl)-1-oxa-8-azaspiro[4.5]decan-3-ylamino)propoxy)-N-methylbenzenesulfonamide] | 1450 nM |
| Cc1cc(S(=O)(=O)N2CCC3(CC2)C[C@@H](NC[C@H](O)COc2cccc(S(N)(=O)=O)c2)CO3)ccc1Br [Compound 590, 3-((S)-3-((R)-8-(4-bromo-3-methylphenylsulfonyl)-1-oxa-8-azaspiro[4.5]decan-3-ylamino)-2-hydroxypropoxy)benzenesulfonamide] | 17.4 nM |
| NS(=O)(=O)c1cccc(OC[C@@H](O)CN[C@H]2COC3(CCN(S(=O)(=O)c4cccc(Cl)c4)CC3)C2)c1 [Compound 591, 3-((S)-3-((R)-8-(3-chlorophenylsulfonyl)-1-oxa-8-azaspiro[4.5]decan-3-ylamino)-2-hydroxypropoxy)benzenesulfonamide] | 149 nM |
| CNS(=O)(=O)c1cccc(OC[C@@H](O)CN[C@H]2COC3(CCN(S(=O)(=O)c4cccc(Cl)c4)CC3)C2)c1 [Compound 592, 3-((S)-3-((R)-8-(3-chlorophenylsulfonyl)-1-oxa-8-azaspiro[4.5]decan-3-ylamino)-2-hydroxypropoxy)-N-methylbenzenesulfonamide] | 21 nM |

tested on: chronic heart failure (CHF) rats; experiment: Chronic heart failure (CHF) rat model, attenuation of negative contractile effects of BRL 37344 on left ventricular pressure; assay type: in vivo; details: 10 min infusion at 3, 10, 30 mg/kg/hr, then bolus of BRL (3 μg/kg)
Experimental: Beta-3 adrenergic receptor antagonists can be evaluated for effects on cardiac contractility in chronic heart failure (CHF) rats. Beta-3 adrenergic receptor expression is weak in the normal rat heart and higher in the rat heart with CHF. Because beta-3 adrenergic receptor expression is higher in the rat heart with CHF, a compound of the present invention was evaluated for the ability to attenuate the negative contractile effects of the beta-3 adrenergic receptor agonist BRL 37344 (BRL) compared to baseline in this CHF rat model.
Myocardial infarction was induced in male Sprague-Dawley rats by performing left coronary descending artery ligation. […]
Heart failure was evaluated weekly following surgery by testing impaired left ventricular function by echocardiography. Left ventricle end-diastolic volume (LVEDV) and left ventricle end-systolic volume (LVESV) were measured for at least three consecutive cardiac cycles in long-axis view images. Ejection Fraction (EF %) was calculated using the following formula: EF %=(LVEDV-LVESV)/LVEDV. […]
A direct determination of left ventricular function was used for all rats to evaluate the effects of compounds on left ventricular contractility. […] Left ventricular pressure (LVP) was monitored by LabChart with POWERLAB® Data Acquisition System (ADInstruments, Sydney, Australia). […]

| SMILES | left ventricular pressure (LVP) |
| --- | --- |
| CNS(=O)(=O)c1cccc(OC[C@@H](O)CN[C@H]2COC3(CCN(S(=O)(=O)c4cnc5cc[nH]c5c4)CC3)C2)c1 [Compound 505, 3-((S)-3-((R)-8-(1H-pyrrolo[3,2-b]pyridin-6-ylsulfonyl)-1-oxa-8-azaspiro[4.5]decan-3-ylamino)-2-hydroxypropoxy)-N-methylbenzenesulfonamide] | dose-dependent improvement; also recorded: inhibition of negative effects of BRL on left ventricular pressure (LVP) |
